Data taken from patent US12275766B2, “Neoantigen peptide mimics” (Janssen Biotech, Inc., priority 2020, dated 2025).
Ends that are not written are not given here.

Experiments:
HLA-A*02:01 = HLA-A*02:01 (Homo sapiens, UniProt P04439, D140Y/D185E/D98H/E176V/E277Q/G131W/G231S/I119V/I121R/I166T/I218V/L300P/L318F/N151K/N90K/P208A/P217A/Q86G/Q94H/R138H/R169H/T345S); type: binding; details: for Average %: average of Exch I and Exch II, relative to exchange control peptide Pos (100%); for Exch I (%): first UV-induced peptide exchange; for Exch I (%) / Exch II (%): absorbance relative to exchange control peptide Pos (100%); for Exch II (%): second UV-induced peptide exchange
[1] = system: CD8+ T cells from HLA-02:01+ PBMCs; assay: Frequency of double positive T cells for mimic and mutant tetramers (flow cytometry); type: cell-based, human
Protocol: Preparation of PBMCs: Vials of HLA-02:01^+ PBMCs frozen from donors (Hemacare) were removed from LN2 storage and rapidly thawed in a 37° C. water bath. The cells were transferred to a 50 mL conical tube containing 40 mL warm media (RPMI 1640 medium+10% fetal bovine serum (FBS)+1% Penicillin streptomycin solution), spun at 1300 rpm for 5 minutes at room temperature. The cell pellet was resuspended in 2 mL EASYSEP™ buffer and cells were counted using trypan blue live dead marker using a haemocytometer.
Enrichment of CD8+ T cells: To enrich the CD8+ T cells from the PBMCs, EASYSEP™ Human CD8+ T Cell Isolation Kit was used as per the manufacturer's instructions. Post enrichment, the cell pellet was resuspended in Dulbecco's phosphate-buffered saline (DPBS) and cells were counted as above. To determine the viability, LIVE/DEAD™ Fixable Violet Dead Cell Stain Kit was used at 0.5 μL/1×10^6/100 μL cell suspension and incubated at room temperature for 20 minutes. At the end of incubation period, FACS buffer (DPBS+2% FBS) was added and the cells were spun at 1300 rpm for 5 minutes at room temperature. The cell pellet was resuspended in FACS buffer, trypan blue was added, and the cell count was determined using a haemocytometer. The cell density was maintained at 1×10^6/50 μL FACS buffer. 3 μL Fc block was added per 1×10^6 cells and incubated for 10 minutes at room temperature in the dark. At the end of the incubation, mimic tetramer and the corresponding mutant tetramers were added at 3 μL tetramer/1×10^6 cells.
For frequency determination, 2×10^6 cells were used for test samples and 1×10^6 cells were used for control samples where negative tetramers were added in place of the mimic or mutant tetramers. A sample where no tetramers were added was kept as unstained control. The samples were incubated at room temperature for 30 minutes in dark. At the end of incubation period, CD8 antibody was added at 2 μL/1×10^6 cells and the samples were incubated for another 30 minutes at room temperature in dark. At the end of incubation, FACS buffer was added to the samples and the samples were spun at 1300 rpm for 5 minutes. The pellet was resuspended in 5 mL FACS buffer and the cells were spun at 1300 rpm for 5 minutes. The pellet was resuspended in 200 μL FACS buffer and events were acquired using the Novocyte flow cytometer.
The cells were acquired on the Novocyte flow cytometer and gated on forward scatter height (FSC-H) versus side scatter height (SSC-H). The cells high on FSC-H versus SSC-H were gated as lymphocytes. From the lymphocytes, live cells were gated by selecting the pacific blue negative cells on an FSC-H versus Pacific Blue-H plot. From the live cells, single cells were gated on FSC-H versus forward scatter area (FSC-A). CD8+ T cells were gated from the singlets as Alexa Fluor 700 positive cells. For gating phycoerythrin (PE) conjugated tetramer positive cells, the CD8^+ cells were gated on Alexa Fluor 700-H versus PE-H and the double positive cells were considered as CD8+ tetramer+. For gating allophycocyanin (APC) conjugated tetramer positive cells, the CD8^+ cells were gated on Alexa Fluor 700-H versus APC-H and the double positive cells were considered as CD8+tetramer+. All gates were set using the negative tetramers to eliminate non-specific binding. The dual positive cells that were mimic and mutant tetramer positive cells were gated by plotting PE-H versus APC-H within the CD8^+ cells.

[2] = donor 17042765, frequency of double positive T cells at least 2-fold higher than the background (negative tetramers)
[3] = donor 19054445, frequency of double positive T cells at least 2-fold higher than the background (negative tetramers)

7 (LVVVGAVGV) [compound 7]
Average % (HLA-A*02:01): 4.5%
Exch I (%) (HLA-A*02:01): 4.3%
Exch II (%) (HLA-A*02:01): 4.6%

Mutant (SEQ ID NO: 16) Mimic (SEQ ID NO: 64): pair of tetramers loaded with mutant ALNNMFCQL (PE) and mimic ALNNMFCQV (APC) (not fully specified; cysteine pairing not given here)
Frequency (%) of double positive T cells within CD8+ compartment of donors ([1]; Donor ID 20001476): 0.021%
Frequency (%) of double positive T cells within CD8+ compartment of donors ([1]; Donor ID 20001487): 0.000%
Frequency (%) of double positive T cells within CD8+ compartment of donors ([1]; Donor ID 20061357): 0.002%
Frequency (%) of double positive T cells within CD8+ compartment of donors ([1]; Donor ID 20061599): 0.000%
Frequency (%) of double positive T cells within CD8+ compartment of donors ([1]; Donor ID 20061661): 0.000%
Frequency (%) of double positive T cells within CD8+ compartment of donors ([1]; Donor ID 20062224): 0.016%
Frequency (%) of double positive T cells within CD8+ compartment of donors ([1]; Donor ID 20062384): 0.000%

6 (LVVVGACGV) [compound 6]
Average % (HLA-A*02:01): 7.0%
Exch I (%) (HLA-A*02:01): 6.5%
Exch II (%) (HLA-A*02:01): 7.5%

Mutant (SEQ ID NO: 2) Mimic (SEQ ID NO: 29): pair of tetramers loaded with mutant YLDCGIHSG (APC) and mimic YLDCGIHSV (PE) (not fully specified; cysteine pairing not given here)
Frequency (%) of double positive T cells within CD8+ compartment of donors ([1]; Donor ID 20001476): 0.075%
Frequency (%) of double positive T cells within CD8+ compartment of donors ([1]; Donor ID 20001487): 0.000%
Frequency (%) of double positive T cells within CD8+ compartment of donors ([1]; Donor ID 20061357): 0.095%
Frequency (%) of double positive T cells within CD8+ compartment of donors ([1]; Donor ID 20061599): 0.000%
Frequency (%) of double positive T cells within CD8+ compartment of donors ([1]; Donor ID 20061661): 0.000%
Frequency (%) of double positive T cells within CD8+ compartment of donors ([1]; Donor ID 20062224): 0.000%
Frequency (%) of double positive T cells within CD8+ compartment of donors ([1]; Donor ID 20062384): 0.000%

Mutant (SEQ ID NO: 18) Mimic (SEQ ID NO 68): pair of tetramers loaded with mutant QLWVDSTPL (APC) and mimic QLWVDSTPV (PE) (not fully specified)
Frequency (%) of double positive T cells within CD8+ compartment of donors ([1]; Donor ID 17042380): 0.01%
Frequency (%) of double positive T cells within CD8+ compartment of donors ([1]; Donor ID 17042765): 0%
Frequency (%) of double positive T cells within CD8+ compartment of donors ([1]; Donor ID 18047563): 0%
Frequency (%) of double positive T cells within CD8+ compartment of donors ([1]; Donor ID 19053796): 0%
Frequency (%) of double positive T cells within CD8+ compartment of donors ([1]; Donor ID 19054141): 0%
Frequency (%) of double positive T cells within CD8+ compartment of donors ([1]; Donor ID 19054183): 0%
Frequency (%) of double positive T cells within CD8+ compartment of donors ([1]; Donor ID 19054445): 0.01%
Frequency (%) of double positive T cells within CD8+ compartment of donors ([1]; Donor ID 19054456): 0%
T-cells positive for mutant-mimic pair ([1]; donor 19053796): positive

Mutant (SEQ ID NO: 3) Mimic (SEQ ID NO: 32): pair of tetramers loaded with mutant YLDSGIHFG (APC) and mimic YLDSGIHFV (PE) (not fully specified)
Frequency (%) of double positive T cells within CD8+ compartment of donors ([1]; Donor ID 20001476): 0.051%
Frequency (%) of double positive T cells within CD8+ compartment of donors ([1]; Donor ID 20001487): 0.000%
Frequency (%) of double positive T cells within CD8+ compartment of donors ([1]; Donor ID 20061357): 0.007%
Frequency (%) of double positive T cells within CD8+ compartment of donors ([1]; Donor ID 20061599): 0.000%
Frequency (%) of double positive T cells within CD8+ compartment of donors ([1]; Donor ID 20061661): 0.000%
Frequency (%) of double positive T cells within CD8+ compartment of donors ([1]; Donor ID 20062224): 0.000%
Frequency (%) of double positive T cells within CD8+ compartment of donors ([1]; Donor ID 20062384): 0.023%

Mutant (SEQ ID NO: 23) Mimic (SEQ ID NO: 78): pair of tetramers loaded with mutant VVPCEPPEV (PE) and mimic VLPCEPPEV (APC) (not fully specified; cysteine pairing not given here)
Frequency (%) of double positive T cells within CD8+ compartment of donors ([1]; Donor ID 20001476): 0.153%
Frequency (%) of double positive T cells within CD8+ compartment of donors ([1]; Donor ID 20001487): 0.000%
Frequency (%) of double positive T cells within CD8+ compartment of donors ([1]; Donor ID 20061357): 0.006%
Frequency (%) of double positive T cells within CD8+ compartment of donors ([1]; Donor ID 20061599): 0.000%
Frequency (%) of double positive T cells within CD8+ compartment of donors ([1]; Donor ID 20061661): 0.000%
Frequency (%) of double positive T cells within CD8+ compartment of donors ([1]; Donor ID 20062224): 0.000%
Frequency (%) of double positive T cells within CD8+ compartment of donors ([1]; Donor ID 20062384): 0.023%

99 (NLVPMVATL) [compound 99]
Average % (HLA-A*02:01): 23.6%
Exch I (%) (HLA-A*02:01): 26.8%
Exch II (%) (HLA-A*02:01): 20.4%

Mutant (SEQ ID NO: 13) Mimic (SEQ ID NO: 59): pair of tetramers loaded with mutant KTYPVQLWV (APC) and mimic KMYPVQLWL (PE) (not fully specified)
Frequency (%) of double positive T cells within CD8+ compartment of donors ([1]; Donor ID 17042380): 0.04%
Frequency (%) of double positive T cells within CD8+ compartment of donors ([1]; Donor ID 17042765): 0.13%
Frequency (%) of double positive T cells within CD8+ compartment of donors ([1]; Donor ID 18047563): 0.01%
Frequency (%) of double positive T cells within CD8+ compartment of donors ([1]; Donor ID 19053796): 0.06%
Frequency (%) of double positive T cells within CD8+ compartment of donors ([1]; Donor ID 19054141): 0.02%
Frequency (%) of double positive T cells within CD8+ compartment of donors ([1]; Donor ID 19054183): 0.01%
Frequency (%) of double positive T cells within CD8+ compartment of donors ([1]; Donor ID 19054445): 0.38%
Frequency (%) of double positive T cells within CD8+ compartment of donors ([1]; Donor ID 19054456): 0%
T-cells positive for mutant-mimic pair [1, 2]: positive
T-cells positive for mutant-mimic pair ([1]; donor 19053796): positive
T-cells positive for mutant-mimic pair [1, 3]: positive

Mutant (SEQ ID NO: 9) Mimic (SEQ ID NO: 45): pair of tetramers loaded with mutant ILNREIDFA (PE) and mimic ILNREIDFV (APC) (not fully specified)
Frequency (%) of double positive T cells within CD8+ compartment of donors ([1]; Donor ID 17042380): 0.05%
Frequency (%) of double positive T cells within CD8+ compartment of donors ([1]; Donor ID 17042765): 0.14%
Frequency (%) of double positive T cells within CD8+ compartment of donors ([1]; Donor ID 18047563): 0.01%
Frequency (%) of double positive T cells within CD8+ compartment of donors ([1]; Donor ID 19053796): 0.1%
Frequency (%) of double positive T cells within CD8+ compartment of donors ([1]; Donor ID 19054141): 0.03%
Frequency (%) of double positive T cells within CD8+ compartment of donors ([1]; Donor ID 19054183): 0.01%
Frequency (%) of double positive T cells within CD8+ compartment of donors ([1]; Donor ID 19054445): 0.24%
Frequency (%) of double positive T cells within CD8+ compartment of donors ([1]; Donor ID 19054456): 0.01%
T-cells positive for mutant-mimic pair [1, 2]: positive
T-cells positive for mutant-mimic pair ([1]; donor 19053796): positive
T-cells positive for mutant-mimic pair [1, 3]: positive

Mutant (SEQ ID NO: 22) Mimic (SEQ ID NO: 75): pair of tetramers loaded with mutant LLGRNSFEM (PE) and mimic LLGRNSFEL (APC) (not fully specified)
Frequency (%) of double positive T cells within CD8+ compartment of donors ([1]; Donor ID 20001476): 0.000%
Frequency (%) of double positive T cells within CD8+ compartment of donors ([1]; Donor ID 20001487): 0.000%
Frequency (%) of double positive T cells within CD8+ compartment of donors ([1]; Donor ID 20061357): 0.004%
Frequency (%) of double positive T cells within CD8+ compartment of donors ([1]; Donor ID 20061599): 0.000%
Frequency (%) of double positive T cells within CD8+ compartment of donors ([1]; Donor ID 20061661): 0.000%
Frequency (%) of double positive T cells within CD8+ compartment of donors ([1]; Donor ID 20062224): 0.015%
Frequency (%) of double positive T cells within CD8+ compartment of donors ([1]; Donor ID 20062384): 0.000%
